Values quoted from earlier work as cited in US12662501B2, “Transcriptome In Vivo Analysis (TIVA) and Transcriptome In Situ Analysis (TISA)” (The Trustees of the University of Pennsylvania, priority 2014, dated 2026).

Columns and labels:
[1] = for Eop: 1MLCT Ru→bpy(π1*) transition; for λmax: 1MLCT band

| Structure (SMILES) | Eop [1] | λmax [1] | ε (1P, 424 nm) | Φ (RuBi-caged GABA) | εΦ (RuBi-caged GABA, 1P, 424 nm) |
| --- | --- | --- | --- | --- | --- |
| N.N.[Ru+2].c1ccc(-c2ccccn2)nc1.c1ccc(-c2ccccn2)nc1 [(NH3)2] | 20410 cm⁻¹ | 490 nm |  |  |  |
| CCSC.CCSC.[Ru+2].c1ccc(-c2ccccn2)nc1.c1ccc(-c2ccccn2)nc1 [(MeSEt)2] | 23697 cm⁻¹ | 422 nm |  |  |  |
| CSc1ccccc1.CSc1ccccc1.[Ru+2].c1ccc(-c2ccccn2)nc1.c1ccc(-c2ccccn2)nc1 [(MeSPh)2] | 24752 cm⁻¹ | 404 nm |  |  |  |
| Cn1ccnc1.Cn1ccnc1.[Ru+2].c1ccc(-c2ccccn2)nc1.c1ccc(-c2ccccn2)nc1 [(N-MeIm)2] | 20700 cm⁻¹ | 483 nm |  |  |  |
| CC(=O)c1ccncc1.CC(=O)c1ccncc1.[Ru+2].c1ccc(-c2ccccn2)nc1.c1ccc(-c2ccccn2)nc1 [(4-AcPyr)2] | 22620 cm⁻¹ | 442 nm |  |  |  |
| [Ru+2].c1ccc(-c2ccccn2)nc1.c1ccc(-c2ccccn2)nc1.c1ccncc1.c1ccncc1 [(Pyr)2] | 21980 cm⁻¹ | 455 nm |  |  |  |
| [Ru+2].c1ccc(-c2ccccn2)nc1.c1ccc(-c2ccccn2)nc1.c1ccc(P(c2ccccc2)c2ccccc2)cc1.c1ccc(P(c2ccccc2)c2ccccc2)cc1 [(PPh3)2] | 23870 cm⁻¹ | 419 nm |  |  |  |
| F[P-](F)(F)(F)(F)F.NCCCC(=O)[O-].[Ru+2].c1ccc(-c2ccccn2)nc1.c1ccc(-c2ccccn2)nc1.c1ccc(P(c2ccccc2)c2ccccc2)cc1 [RuBi-caged GABA] |  |  | 6400 M⁻¹ cm⁻¹ | 0.2 | 1280 |
| C=CCn1cnnc1 [4-ally1-1,2,4-triazole] | 21190 cm⁻¹ | 472 nm |  |  |  |
